According to ChEMBL document CHEMBL1158181, “Studies of trypanocidal (inhibitory) power of naphthoquinones: evaluation of quantum chemical molecular descriptors for structure-activity relationships” (Eur J Med Chem, 2008):

Assays:
Leptomonas seymouri = assay: Antitrypanosomal activity against Leptomonas seymouri; assay type: functional, organism-based
[1] = Oxidation of dithiothreitol assessed as oxygen consumption at 50 uM; assay type: physicochemical
[2] = Oxidation of dihydrolipoamide assessed as oxygen consumption at 50 uM; assay type: physicochemical
Crithidia fasciculata = assay: Antitrypanosomal activity against Crithidia fasciculata; assay type: functional, organism-based

Structure (SMILES) | Activity [1] [µM/min] | Activity [2] [µM/min] | IC50 (Leptomonas seymouri) [µM] | IC50 (Crithidia fasciculata) [µM]
CC1(c2ccccc2)CCC2=C(O1)c1ccccc1C(=O)C2=O (centres undefined) | 315 | 990 | 0.7 | 0.7
CCC1(C)CCC2=C(O1)c1ccccc1C(=O)C2=O (centres undefined) | 208 | 733 | 0.3 | 0.8
CC1(C)CCC2=C(O1)C(=O)c1ccccc1C2=O [ALPHA-LAPACHONE] | 1 | 7 | 4.1 | 27
CC1(C)CCC2=C(O1)c1ccccc1C(=O)C2=O [LAPACHONE] | 238 | 808 | 0.4 | 
CC1=CC2=C(C(=O)C1=O)C(C)CCC2C(C)C (centres undefined) [MANSONONE A] | 37 | 26 | 8.5 | 15

Now from value to compound, other results behind:

Activity [1] [µM/min] | Activity [2] [µM/min] | Structure (SMILES) | IC50 (Leptomonas seymouri) [µM] | IC50 (Crithidia fasciculata) [µM]
 | 434 | CC1=Cc2c(C(C)C)ccc(C)c2C(=O)C1=O | 4 | 6
470 | 879 | CC1(C)CCC2=C(O1)c1cc(Cl)ccc1C(=O)C2=O | 0.4 | 0.8
66 | 276 | CC1=C2OCC(C)c3ccc(C)c(c32)C(=O)C1=O (centres undefined) [MANSONONE E] | 0.4 | 0.6
14 | 58 | CC1=COC2=C(C)C(=O)C(=O)c3c(C)ccc1c32 [MANSONONE F] | 0.1 | 0.3
